# Tests used:
# [1] = molecular target: Muscarinic acetylcholine receptors; M1 & M2 (Homo sapiens) (UniProt P11229+P08172); assay: Selectivity ratio for M1 muscarinic receptor compared to M2 muscarinic receptor.; type: protein assay
# [2] = molecular target: T1, Muscarinic acetylcholine receptor M2 (Homo sapiens, UniProt P08172); assay: Binding affinity at human cloned acetylcholine receptor M2 in CHO cells.; type: cell-based
# T1 sequence (P08172 whole entry): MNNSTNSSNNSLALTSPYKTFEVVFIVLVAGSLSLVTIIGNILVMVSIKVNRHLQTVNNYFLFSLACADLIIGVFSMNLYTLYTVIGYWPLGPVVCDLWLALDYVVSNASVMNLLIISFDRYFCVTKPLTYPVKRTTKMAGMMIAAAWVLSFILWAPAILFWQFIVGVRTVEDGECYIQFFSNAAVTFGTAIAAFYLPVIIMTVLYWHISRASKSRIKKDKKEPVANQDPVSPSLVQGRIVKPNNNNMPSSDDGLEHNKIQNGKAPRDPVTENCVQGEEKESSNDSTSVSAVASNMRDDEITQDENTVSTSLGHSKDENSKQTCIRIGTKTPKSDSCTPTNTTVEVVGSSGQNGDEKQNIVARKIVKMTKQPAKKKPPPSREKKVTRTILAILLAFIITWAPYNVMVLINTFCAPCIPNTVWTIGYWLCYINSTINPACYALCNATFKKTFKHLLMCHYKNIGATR
# [3] = molecular target: Muscarinic acetylcholine receptors; M2 & M3 (Homo sapiens) (UniProt P20309+P08172); assay: Selectivity ratio for M3 muscarinic receptor compared to M2 muscarinic receptor.; type: protein assay
# Chain of Muscarinic acetylcholine receptors; M1 & M2 (Homo sapiens) (P11229 whole entry, looked up, one chain of several): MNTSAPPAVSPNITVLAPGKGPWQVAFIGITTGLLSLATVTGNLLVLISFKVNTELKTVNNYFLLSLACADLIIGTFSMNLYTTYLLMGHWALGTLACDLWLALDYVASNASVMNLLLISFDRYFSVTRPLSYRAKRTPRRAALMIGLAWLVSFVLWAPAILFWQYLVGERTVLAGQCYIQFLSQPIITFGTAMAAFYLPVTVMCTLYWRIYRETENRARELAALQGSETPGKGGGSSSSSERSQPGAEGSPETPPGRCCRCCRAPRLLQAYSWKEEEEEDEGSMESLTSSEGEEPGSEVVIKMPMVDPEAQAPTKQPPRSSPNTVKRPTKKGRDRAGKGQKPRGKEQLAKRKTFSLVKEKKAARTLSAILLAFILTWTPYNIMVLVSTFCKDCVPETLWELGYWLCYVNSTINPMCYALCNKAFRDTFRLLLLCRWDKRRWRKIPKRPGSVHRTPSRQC
Ratio [1],Ki [2] [nM],Ratio [3],Structure (SMILES)
7.5,9.09,12.9,CCCS(=O)(=O)N1CCC(N2CCC(C3(c4ccc([S+]([O-])c5ccc6c(c5)OCO6)cc4)O[C@H](C)[C@@H](C)O3)CC2)CC1 (some centres undefined)
21,0.72,14.4,CCOC(=O)N1CCC(N2CCC(C3(c4ccc(S(=O)(=O)c5ccc(OC)cc5)cc4)OCCCO3)CC2)CC1
0.22,5.07,0.24,CCCS(=O)(=O)N1CCC(N2CCC(C3(c4ccc(S(=O)(=O)c5ccc6c(c5)OCO6)cc4)CCCO3)CC2)CC1 (centres undefined)
4.6,34.8,11.8,CCCS(=O)(=O)N1CCC(N2CCC(C(=O)c3ccc([S+]([O-])c4ccc5c(c4)OCO5)cc3)CC2)CC1 (centres undefined)
4.1,0.073,1.3,CCOC(=O)N1CCC(N2CCC(C3(c4ccc(S(=O)(=O)c5ccc6c(c5)OCO6)cc4)OCCO3)CC2)CC1
68.3,0.07,21.9,C=C(c1ccc(S(=O)(=O)c2ccc(OC)cc2)cc1)C1CCN(C2CCN(C(=O)OCC)CC2)CC1
10.8,0.823,10,CCCS(=O)(=O)N1CCC(N2CCC(C3(c4ccc([S+]([O-])c5ccc6c(c5)OCO6)cc4)OCCO3)CC2)CC1 (centres undefined)
10.7,0.82,12.8,CCCS(=O)(=O)N1CCC(N2CCC(C3(c4ccc([S+]([O-])c5ccc6c(c5)OCO6)cc4)SCCS3)CC2)CC1 (centres undefined)
8.7,1.22,46.1,CCCS(=O)(=O)N1CCC(N2CCC(C3(c4ccc(S(=O)(=O)c5ccc6c(c5)OCO6)cc4)O[C@H](C)[C@@H](C)O3)CC2)CC1
26.8,2.91,10.2,CCOC(=O)N1CCC(N2CCC(C(=O)c3ccc(S(=O)(=O)c4ccc(OC)cc4)cc3)CC2)CC1
62.6,0.031,57.4,CCCS(=O)(=O)N1CCC(N2CCC(C3(c4ccc(S(=O)(=O)c5ccc6c(c5)OCO6)cc4)SCCS3)CC2)CC1
4.4,14.3,2.9,CCOC(=O)N1CCC(N2CCC(C3(c4ccc(S(=O)(=O)c5ccc(OC)cc5)cc4)SCCCS3)CC2)CC1
42.6,1.02,93.4,CCCS(=O)(=O)N1CCC(N2CCC(C(=O)c3ccc(S(=O)(=O)c4ccc5c(c4)OCO5)cc3)CC2)CC1
0.49,12.1,0.5,CCCS(=O)(=O)N1CCC(N2CCC(C3(c4ccc([S+]([O-])c5ccc6c(c5)OCO6)cc4)CCCO3)CC2)CC1 (centres undefined)
47.6,0.13,7.5,CCOC(=O)N1CCC(N2CCC(C(=O)c3ccc(S(=O)(=O)c4ccc5c(c4)OCO5)cc3)CC2)CC1
28.3,0.16,7.1,CCOC(=O)N1CCC(N2CCC(C3(c4ccc(S(=O)(=O)c5ccc(OC)cc5)cc4)OCCO3)CC2)CC1
22.5,0.11,3,CCOC(=O)N1CCC(N2CCC(C3(c4ccc(S(=O)(=O)c5ccc(OC)cc5)cc4)SCCS3)CC2)CC1
102,–,93,CCCS(=O)(=O)N1CCC(N2CCC(C3(c4ccc(S(=O)(=O)c5ccc6c(c5)OCO6)cc4)OCCO3)CC2)CC1

Structure (SMILES),Ratio [1],Ki [2] [nM],Ratio [3]
CCOC(=O)N1CCC(N2CCC(C3(c4ccc(S(=O)(=O)c5ccc6c(c5)OCO6)cc4)O[C@H](C)[C@@H](C)O3)CC2)CC1,21.7,0.03,46
CCOC(=O)N1CCC(N2CCC(C3(c4ccc(S(=O)(=O)c5ccc6c(c5)OCO6)cc4)O[C@@H](C)[C@H](C)O3)CC2)CC1,10.2,1.82,6.1

# From ChEMBL document CHEMBL1132840, “Benzylidene ketal derivatives as M2 muscarinic receptor antagonists” (Bioorg Med Chem Lett, 2000)
